Measurements from article PMC11792831, “Design and synthesis of doublecortin-like kinase 1 inhibitors and their bioactivity evaluation” (Journal of Enzyme Inhibition and Medicinal Chemistry, 2023).
Like-named read-outs stand apart in the source and are kept apart here.

Legend:
DCLK1 = molecular target: T1, DCLK1 (Homo sapiens, UniProt O15075); experiment: In vitro DCLK1 kinase activity assay (Eurofins); assay type: biochemical; details: for Selectivity (DCLK1 activity/LRRK2 activity): ratio of remaining activities at 1 uM; for activity at 1 µM: read-out: DCLK1 activity (%)
T1 construct: purchased Eurofins (Belgium), contract assay service
T1 sequence (O15075 1-740): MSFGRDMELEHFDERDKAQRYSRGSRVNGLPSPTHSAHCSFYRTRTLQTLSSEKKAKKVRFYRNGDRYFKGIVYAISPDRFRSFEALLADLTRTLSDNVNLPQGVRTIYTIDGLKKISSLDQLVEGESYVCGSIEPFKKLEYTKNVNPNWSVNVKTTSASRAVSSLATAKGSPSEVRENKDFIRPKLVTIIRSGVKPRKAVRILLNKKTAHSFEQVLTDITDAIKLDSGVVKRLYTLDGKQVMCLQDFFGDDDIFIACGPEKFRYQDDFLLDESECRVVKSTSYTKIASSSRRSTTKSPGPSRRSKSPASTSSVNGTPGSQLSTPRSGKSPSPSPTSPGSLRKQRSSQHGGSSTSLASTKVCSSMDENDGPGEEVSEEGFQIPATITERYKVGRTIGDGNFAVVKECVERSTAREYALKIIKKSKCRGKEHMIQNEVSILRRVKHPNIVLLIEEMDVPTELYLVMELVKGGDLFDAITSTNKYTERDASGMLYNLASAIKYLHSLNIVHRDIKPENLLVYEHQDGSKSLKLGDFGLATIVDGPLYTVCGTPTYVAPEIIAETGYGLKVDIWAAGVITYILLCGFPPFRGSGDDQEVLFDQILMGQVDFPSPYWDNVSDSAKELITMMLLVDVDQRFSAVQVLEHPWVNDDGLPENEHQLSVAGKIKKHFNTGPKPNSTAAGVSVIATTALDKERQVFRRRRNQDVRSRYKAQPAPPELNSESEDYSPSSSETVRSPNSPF
Excerpt: (§1) Eurofins (Belgium) conducted in vitro DCLK1 and LRRK2 kinase activity assays. Compounds were sent as dry powders to Eurofins.

LRRK2 = molecular target: T2, LRRK2 (Homo sapiens, UniProt Q5S007); experiment: In vitro LRRK2 kinase activity assay (Eurofins); assay type: biochemical; details: for activity at 1 µM / LRRK2 activity (%): remaining kinase activity at 1 uM compound, 100% = no inhibition, 0% = complete inhibition
T2 construct: purchased Eurofins (Belgium), contract assay service
Method: All compounds were tested for their kinase inhibitory activity at the concentration of 1 μM. […] Compounds with high activity or good selectivity were selected for further IC50 determination (Table 2).
as §1

HCT116 = experiment: In vitro cytotoxicity / anti-proliferation assay (CCK8); assay type: cell-based; details: Homo sapiens, HCT-116, colorectal cancer cell line HCT116, 72 h
Method: To determine whether DCLK1 was required for tumour cell proliferation, the cytotoxicity of compounds was evaluated in colorectal cancer cell line HCT116. HCT116 was treated with compounds for 72 h, and the cell viability was determined using CCK8 assay (Figure 4). The antiproliferative effects of most compounds on HCT116 were correlated with their DCLK1 inhibitory activities, except for compounds D1 and D2. The poor cytotoxicity of compounds D1 and D2 may be attributed to their poor cell membrane permeability due to the negatively charged carboxylates. […] Overall, targeting DCLK1 inhibited the proliferation of HCT116, indicating the importance of DCLK1 in tumour growth.
A 96-well plate (3599, Corning, USA) was inoculated with 100 μL of complete medium containing 10 000 cells, and the experimental, control, and blank groups were established. Three parallel wells were used per concentration. After 10 h, media from the experimental and control groups were replaced with a complete medium containing the indicated concentration of the compound. Cells were incubated for 72 h before 10 μL of CCK8 reagent (CA1210, Solarbio, China) was added to each well and incubated for 1 h. The absorbance at 450 nm was measured with a microplate reader (Tecan, Switzerland). The IC50 was determined using GraphPad Prism 8 and nonlinear regression curve fitting.

[1] = remaining kinase activity at 1 uM compound, 100% = no inhibition, 0% = complete inhibition

T2 sequence (Q5S007 whole entry): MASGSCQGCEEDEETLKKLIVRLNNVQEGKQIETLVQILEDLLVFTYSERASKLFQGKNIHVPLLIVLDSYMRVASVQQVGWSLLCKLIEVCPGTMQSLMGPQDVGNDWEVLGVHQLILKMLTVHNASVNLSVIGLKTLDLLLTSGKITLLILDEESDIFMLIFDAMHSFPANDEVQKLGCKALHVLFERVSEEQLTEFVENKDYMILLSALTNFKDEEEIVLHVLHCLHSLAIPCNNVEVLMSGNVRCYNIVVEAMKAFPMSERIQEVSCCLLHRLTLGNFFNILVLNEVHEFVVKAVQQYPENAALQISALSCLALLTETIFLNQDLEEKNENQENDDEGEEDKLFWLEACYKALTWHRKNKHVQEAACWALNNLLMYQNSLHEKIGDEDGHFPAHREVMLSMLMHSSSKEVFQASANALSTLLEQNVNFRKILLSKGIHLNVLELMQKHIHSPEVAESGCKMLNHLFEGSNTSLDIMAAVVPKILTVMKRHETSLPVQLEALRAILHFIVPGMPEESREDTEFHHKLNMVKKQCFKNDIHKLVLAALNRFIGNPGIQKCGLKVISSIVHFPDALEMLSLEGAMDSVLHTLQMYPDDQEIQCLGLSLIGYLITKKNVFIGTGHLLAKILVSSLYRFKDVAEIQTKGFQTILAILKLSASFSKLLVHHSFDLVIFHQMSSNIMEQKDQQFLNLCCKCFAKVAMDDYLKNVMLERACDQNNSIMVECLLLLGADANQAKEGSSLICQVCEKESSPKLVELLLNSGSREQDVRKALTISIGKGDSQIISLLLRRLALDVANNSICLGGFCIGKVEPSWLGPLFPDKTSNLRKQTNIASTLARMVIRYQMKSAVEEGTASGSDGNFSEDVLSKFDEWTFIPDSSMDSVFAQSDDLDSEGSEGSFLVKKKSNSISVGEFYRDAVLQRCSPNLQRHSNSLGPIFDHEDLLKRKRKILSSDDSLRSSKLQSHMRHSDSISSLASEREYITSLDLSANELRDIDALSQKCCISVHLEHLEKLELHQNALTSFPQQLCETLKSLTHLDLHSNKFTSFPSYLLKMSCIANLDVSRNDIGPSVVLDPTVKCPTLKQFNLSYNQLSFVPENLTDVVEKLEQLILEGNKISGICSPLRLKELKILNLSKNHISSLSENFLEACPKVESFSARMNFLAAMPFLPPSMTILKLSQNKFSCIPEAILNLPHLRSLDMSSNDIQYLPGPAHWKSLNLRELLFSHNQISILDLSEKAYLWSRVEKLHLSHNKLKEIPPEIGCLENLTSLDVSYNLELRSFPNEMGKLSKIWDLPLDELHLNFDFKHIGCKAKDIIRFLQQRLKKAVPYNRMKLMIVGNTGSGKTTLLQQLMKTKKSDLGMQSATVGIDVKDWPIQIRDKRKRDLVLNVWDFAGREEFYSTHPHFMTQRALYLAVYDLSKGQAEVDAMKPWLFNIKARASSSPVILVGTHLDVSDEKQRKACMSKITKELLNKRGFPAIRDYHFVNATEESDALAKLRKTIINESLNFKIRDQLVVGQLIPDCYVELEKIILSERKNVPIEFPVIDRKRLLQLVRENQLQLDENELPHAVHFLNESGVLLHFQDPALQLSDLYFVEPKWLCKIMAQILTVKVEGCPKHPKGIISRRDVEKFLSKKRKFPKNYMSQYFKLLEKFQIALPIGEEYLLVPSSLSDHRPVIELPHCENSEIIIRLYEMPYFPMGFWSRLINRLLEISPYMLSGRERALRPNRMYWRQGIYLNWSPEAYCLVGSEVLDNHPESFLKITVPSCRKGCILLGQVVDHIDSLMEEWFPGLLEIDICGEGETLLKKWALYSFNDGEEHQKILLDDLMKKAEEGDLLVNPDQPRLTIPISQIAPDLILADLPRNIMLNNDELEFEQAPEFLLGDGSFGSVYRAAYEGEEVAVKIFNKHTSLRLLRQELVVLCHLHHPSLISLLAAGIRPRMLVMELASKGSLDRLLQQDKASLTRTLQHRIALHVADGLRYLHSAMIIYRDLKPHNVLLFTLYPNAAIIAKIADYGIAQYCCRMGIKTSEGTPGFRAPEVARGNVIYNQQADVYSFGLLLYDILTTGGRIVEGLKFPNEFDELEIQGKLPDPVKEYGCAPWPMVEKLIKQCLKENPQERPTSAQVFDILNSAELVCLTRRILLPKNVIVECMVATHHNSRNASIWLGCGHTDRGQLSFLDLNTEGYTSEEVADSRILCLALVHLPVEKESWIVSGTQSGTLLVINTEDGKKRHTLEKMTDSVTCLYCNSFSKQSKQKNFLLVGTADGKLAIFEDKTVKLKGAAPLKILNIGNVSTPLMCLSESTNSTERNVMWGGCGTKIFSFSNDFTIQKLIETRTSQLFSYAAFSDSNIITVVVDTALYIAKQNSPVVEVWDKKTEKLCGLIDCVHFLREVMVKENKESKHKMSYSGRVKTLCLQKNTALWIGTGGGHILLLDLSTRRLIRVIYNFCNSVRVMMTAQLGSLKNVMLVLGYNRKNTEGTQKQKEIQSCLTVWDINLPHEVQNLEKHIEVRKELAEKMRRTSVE

With `CCOc1cc(N2CCC(O)CC2)ccc1Nc1ncc2c(n1)N(C)c1ccc(Cl)cc1C(=O)N2C` [Compound A5, 8-Chloro-2-((2-ethoxy-4-(4-hydroxypiperidin-1-yl)phenyl)amino)-5,11-dimethyl-5,11-dihydro-6H-benzo[e]pyrimido[5,4-b][1,4]diazepin-6-one] the “Selectivity (DCLK1 activity/LRRK2 activity)” value (DCLK1) was 0.98, the activity at 1 µM (DCLK1; [1]) was 87% and the melting point was 173 to 174 °C. The activity at 1 µM (LRRK2) was 89%.

In the case of `CCOc1cc(N2CCC(O)CC2)ccc1Nc1ncc2c(n1)N(C)c1cc(C)ccc1C(=O)N2C` [Compound A4, 2-((2-Ethoxy-4-(4-hydroxypiperidin-1-yl)phenyl)amino)-5,9,11-trimethyl-5,11-dihydro-6H-benzo[e]pyrimido[5,4-b][1,4]diazepin-6-one], the “Selectivity (DCLK1 activity/LRRK2 activity)” value (DCLK1) is reported as 1.07, the activity at 1 µM (DCLK1; [1]) is reported as 89% and the melting point is reported as 171 to 172 °C. It also gave an activity at 1 µM (LRRK2) of 83%.

In the case of `CN1C(=O)c2ccccc2N(C)c2nc(NC3CCC(N4CCC(O)CC4)CC3)ncc21` (stereo not shown) [Compound C1, 2-((4-(4-Hydroxypiperidin-1-yl)cyclohexyl)amino)-5,11-dimethyl-5,11-dihydro-6H-benzo[e]pyrimido[5,4-b][1,4]diazepin-6-one], the “Selectivity (DCLK1 activity/LRRK2 activity)” value (DCLK1) is reported as 0.57, the activity at 1 µM (DCLK1; [1]) is reported as 56% and the melting point is reported as 203 to 204 °C. For the same compound, the activity at 1 µM (LRRK2) was 99%.

In the case of `CN1C(=O)c2ccccc2N(C)c2nc(Nc3ccc(N4CCC(O)CC4)nc3)ncc21` [Compound C2, 2-((6-(4-Hydroxypiperidin-1-yl)pyridin-3-yl)amino)-5,11-dimethyl-5,11-dihydro-6H-benzo[e]pyrimido[5,4-b][1,4]diazepin-6-one], the “Selectivity (DCLK1 activity/LRRK2 activity)” value (DCLK1) is reported as 2.14, the activity at 1 µM (DCLK1; [1]) is reported as 15% and the melting point is reported as 189 to 190 °C. For the same compound, the activity at 1 µM (LRRK2) was 7%.

For `CCOc1cc(N2CCC(O)CC2)ccc1Nc1ncc2c(n1)N(C)c1ccc(C)cc1C(=O)N2C` [Compound A8, 2-((2-Ethoxy-4-(4-hydroxypiperidin-1-yl)phenyl)amino)-5,8,11-trimethyl-5,11-dihydro-6H-benzo[e]pyrimido[5,4-b][1,4]diazepin-6-one], the “Selectivity (DCLK1 activity/LRRK2 activity)” value (DCLK1) was 1.10, the activity at 1 µM (DCLK1; [1]) was 102% and the melting point was 170 to 171 °C. For the same compound, the activity at 1 µM (LRRK2) was 93%.

With `CCOc1cc(N2CCC(O)CC2)ccc1Nc1ncc2c(n1)N(C)c1c(Cl)cccc1C(=O)N2C` [Compound A1, 10-Chloro-2-((2-ethoxy-4-(4-hydroxypiperidin-1-yl)phenyl)amino)-5,11-dimethyl-5,11-dihydro-6H-benzo[e]pyrimido[5,4-b][1,4]diazepin-6-one] the “Selectivity (DCLK1 activity/LRRK2 activity)” value (DCLK1) was 3.13, the activity at 1 µM (DCLK1; [1]) was 25% and the melting point was 130 to 131 °C. The activity at 1 µM (LRRK2) was 8%.

In the case of `CCOc1cc(N2CCC(O)CC2)ccc1Nc1ncc2c(n1)N(C)c1cc(Cl)ccc1C(=O)N2C` [Compound A3, 9-Chloro-2-((2-ethoxy-4-(4-hydroxypiperidin-1-yl)phenyl)amino)-5,11-dimethyl-5,11-dihydro-6H-benzo[e]pyrimido[5,4-b][1,4]diazepin-6-one], the “Selectivity (DCLK1 activity/LRRK2 activity)” value (DCLK1) is reported as 0.97, the activity at 1 µM (DCLK1; [1]) is reported as 85% and the melting point is reported as 162 to 163 °C. For the same compound, the activity at 1 µM (LRRK2) was 88%.

For `CCOc1cc(N2CCC(O)CC2)ccc1Nc1ncc2c(n1)N(C)c1c(C)cccc1C(=O)N2C` [Compound A2, 2-((2-Ethoxy-4-(4-hydroxypiperidin-1-yl)phenyl)amino)-5,10,11-trimethyl-5,11-dihydro-6H-benzo[e]pyrimido[5,4-b][1,4]diazepin-6-one], the “Selectivity (DCLK1 activity/LRRK2 activity)” value (DCLK1) was 1.03, the activity at 1 µM (DCLK1; [1]) was 103% and the melting point was 177 to 178 °C. It also gave an activity at 1 µM (LRRK2) of 100%.

For `CCOc1cc(N2CCC(C)(O)CC2)ccc1Nc1ncc2c(n1)N(C)c1ccccc1C(=O)N2CC` [Compound D9, 2-((2-Ethoxy-4-(4-hydroxy-4-methylpiperidin-1-yl)phenyl)amino)-5-ethyl-11-methyl-5,11-dihydro-6H-benzo[e]pyrimido[5,4-b][1,4]diazepin-6-one], the “Selectivity (DCLK1 activity/LRRK2 activity)” value (DCLK1) was 0.51, the activity at 1 µM (DCLK1; [1]) was 26% and the melting point was 178 to 179 °C. It also gave an activity at 1 µM (LRRK2) of 51%.

With `CCOc1cc(N2CCC(C)(F)CC2)ccc1Nc1ncc2c(n1)N(C)c1ccccc1C(=O)N2CC` [Compound D10, 2-((2-Ethoxy-4-(4-fluoro-4-methylpiperidin-1-yl)phenyl)amino)-5-ethyl-11-methyl-5,11-dihydro-6H-benzo[e]pyrimido[5,4-b][1,4]diazepin-6-one] the “Selectivity (DCLK1 activity/LRRK2 activity)” value (DCLK1) was 0.63, the activity at 1 µM (DCLK1; [1]) was 51% and the melting point was 189 to 190 °C. It also gave an activity at 1 µM (LRRK2) of 81%.

For `CCOc1cc(N2CCC(O)CC2)ccc1Nc1ncc2c(n1)N(C)c1ccc(C(F)(F)F)cc1C(=O)N2C` [Compound A7, 2-((2-Ethoxy-4-(4-hydroxypiperidin-1-yl)phenyl)amino)-5,11-dimethyl-8-(trifluoromethyl)-5,11-dihydro-6H-benzo[e]pyrimido[5,4-b][1,4]diazepin-6-one], the “Selectivity (DCLK1 activity/LRRK2 activity)” value (DCLK1) was 1.00, the activity at 1 µM (DCLK1; [1]) was 109% and the melting point was 119 to 120 °C. The activity at 1 µM (LRRK2) was 109%.

In the case of “2-((2-Ethoxy-4-(4-hydroxypiperidin-1-yl)phenyl)amino)-11-methyl-5,11-dihydro-6H-benzo[e]pyrimido[5,4-b][1,4]diazepin-6-one [Compound B1]”, the “Selectivity (DCLK1 activity/LRRK2 activity)” value (DCLK1) is reported as 1.34, the “DCLK1 activity (%)” value (DCLK1; [1]) is reported as 102% and the “LRRK2 activity (%)” value (LRRK2) is reported as 76%.

For `CCOc1cc(N2CCC(O)CC2)ccc1Nc1ncc2c(n1)N(C)c1cccc(C)c1C(=O)N2C` [Compound A10, 2-((2-Ethoxy-4-(4-hydroxypiperidin-1-yl)phenyl)amino)-5,7,11-trimethyl-5,11-dihydro-6H-benzo[e]pyrimido[5,4-b][1,4]diazepin-6-one], the “Selectivity (DCLK1 activity/LRRK2 activity)” value (DCLK1) was 0.98, the activity at 1 µM (DCLK1; [1]) was 96% and the melting point was 184 to 185 °C. The activity at 1 µM (LRRK2) was 98%.

With `COc1cc(N2CCC(C)(C)CC2)ccc1Nc1ncc2c(n1)N(C)c1ccccc1C(=O)N2C` [Compound D16, 2-((4-(4,4-Dimethylpiperidin-1-yl)-2-methoxyphenyl)amino)-5,11-dimethyl-5,11-dihydro-6H-benzo[e]pyrimido[5,4-b][1,4]diazepin-6-one] the “Selectivity (DCLK1 activity/LRRK2 activity)” value (DCLK1) was 0.45, the activity at 1 µM (DCLK1; [1]) was 15% and the melting point was 181 to 182 °C. The activity at 1 µM (LRRK2) was 33%.

`CCOc1cc(N2CCC(O)CC2)ccc1Nc1ncc2c(n1)N(C)c1ccccc1C(=O)N2C` [XMD8-92, reference compound] gave an IC50 (HCT116) of 16200 nM, an IC50 (DCLK1) of 161 nM and an activity at 1 µM (DCLK1) of 14%. It also gave an IC50 (LRRK2) of 219 nM and an activity at 1 µM (LRRK2) of 18%.

With `COc1cc(N2CCC(F)CC2)ccc1Nc1ncc2c(n1)N(C)c1ccccc1C(=O)N2C` [Compound D13, 2-((4-(4-Fluoropiperidin-1-yl)-2-methoxyphenyl)amino)-5,11-dimethyl-5,11-dihydro-6H-benzo[e]pyrimido[5,4-b][1,4]diazepin-6-one] the “Selectivity (DCLK1 activity/LRRK2 activity)” value (DCLK1) was 0.82, the activity at 1 µM (DCLK1; [1]) was 59% and the melting point was 160 to 161 °C. It also gave an activity at 1 µM (LRRK2) of 72%.

For “2-((2-Ethoxy-4-(4-hydroxypiperidin-1-yl)phenyl)amino)-5-methyl-5,11-dihydro-6H-benzo[e]pyrimido[5,4-b][1,4]diazepin-6-one [Compound B2]”, the “Selectivity (DCLK1 activity/LRRK2 activity)” value (DCLK1) was 0.82, the “DCLK1 activity (%)” value (DCLK1; [1]) was 59% and the “LRRK2 activity (%)” value (LRRK2) was 72%.
